Test system: HBV
Assay: HBV screening assay (viral DNA in baculovirus-HBV transduced HepG2 cells)
Format: cell-based
Conditions: Hepatitis B virus, HepG2, 72 h, read-out: EC50 (antiviral activity), HBV-transduced HepG2 cells, three days with compound, viral DNA by ELISA
Protocol: HepG2 cells were transduced using a baculovirus to deliver the HBV genome essentially as previously described (Delaney et al. in Hepatology 1998; 28: 1134-1146). Transduced cells were cultured in supplemented EMEM media with 10% fetal bovine serum in a 5% CO2 incubator at 37° C. for three days in the presence of test compounds. The cells were lysed in a buffer containing 0.5% NP-40 and […] proteinase K. A solid-phase hybridization was performed to capture the viral DNA and to label the target DNA with Digoxigenin-labeled DNA probes. The viral DNA was detected by ELISA, using horseradish peroxidase-conjugated anti-digoxigenin antibodies.
The EC50 values were determined using ExcelFit software from the inhibition values of a titration curve for each compound. For CC50 determinations, the same titration of compounds was co-cultured with non-transduced HepG2 for three days under the conditions described above. The Promega CellTiter 96 Aqueous One Solution Cell Proliferation Assay was used to measure cell proliferation/viability. The CC50 values were determined using ExcelFit software from the inhibition values of the titration curve for each compound.

SMILES | EC50 [µM]
COC(=O)c1ccc(NC(=S)N2Cc3nc4sc(C(N)=O)c(N)c4c(-c4cccs4)c3C2)cc1 [Compound 90, 4-[(3-Amino-2-carbaomyl-4-thiophen-2-yl-5,7-dihydro-1-thia-6,8-diaza-s-indacene-6-carbothioyl)-amino]benzoic acid methylester] | > 10
CC(=O)N1CCc2nc3sc(C(N)=O)c(N)c3c(-c3cccs3)c2C1 [Compound 34, 6-Acetyl-3-amino-4-thiophen-2-yl-5,6,7,8-tetrahydro-thieno[2,3-b][1,6]naphthyridine-2-carboxylic acid amide] | > 10
CCNC(=O)N1Cc2nc3sc(C(N)=O)c(N)c3c(-c3cccs3)c2C1 [Compound 98, 3-Amino-4-thiophen-2-yl-5,7-dihydro-1-thia-6,8-diaza-s-indacene-2,6-dicarboxylicacid 2-amide 6-ethylamide] | < 1
CN1CCCC1CCNC(=O)CC1CCc2c1nc1sc(C(N)=O)c(N)c1c2-c1cccs1 (stereo not shown) [Compound 55, 3-Amino-7-{[2-(1-methyl-pyrrolidin-2-yl)-ethylcarbamoyl]-methyl}-4-thiophen-2-yl-6,7-dihydro-5H-cyclopenta[b]thieno[3,2-e]pyridine-2-carboxylic acid amide] | > 10
CCCC1CCCc2c1nc1sc(C(N)=O)c(N)c1c2-c1cccs1 (stereo not shown) [Compound 65, 3-Amino-8-propyl-4-thiophen-2-yl-5,6,7,8-tetrahydro-thieno[2,3-b]quinoline-2-carboxylic acid amide] | 1 to 10
CC(C)CC1CCCc2c1nc1sc(C(N)=O)c(N)c1c2-c1cccs1 (stereo not shown) [Compound 63, 3-Amino-8-isobutyl-4-thiophen-2-yl-5,6,7,8-tetrahydro-thieno[2,3-b]quinoline-2-carboxylic acid amide] | 1 to 10
NC(=O)c1sc2nc3c(c(-c4cccs4)c2c1N)CN(CCCCl)C3 [Compound 3, 3-Amino-6-(3-chloro-propyl)-4-thiophen-2-yl-6,7-dihydro-5H-1-thia-6,8-diaza-s-indacene-2-carboxylic acid amide] | 1 to 10
NC(=O)c1sc2nc3c(c(-c4cccs4)c2c1N)CN(C(=S)NCCCN1CCOCC1)C3 [Compound 94, 3-Amino-6-(3-morpholin-4-yl-propylthiocarbamoyl)-4-thiophen-2-yl-6,7-dihydro-5H-1-thia-6,8-diaza-s-indacene-2-carboxylic acid amide] | > 10
CCOC1CCc2c1nc1sc(C(N)=O)c(N)c1c2-c1cccs1 (stereo not shown) [Compound 35, 3-Amino-7-ethoxy-4-thiophen-2-yl-6,7-dihydro-5H-cyclopenta[b]thieno[3,2-e]pyridine-2-carboxylic acid amide] | < 1
NC(=O)c1sc2nc3c(c(-c4cccs4)c2c1N)CCCC3Cc1ccccc1 (stereo not shown) [Compound 64, 3-Amino-8-benzyl-4-thiophen-2-yl-5,6,7,8-tetrahydro-thieno[2,3-b]uinoline-2-carboxylic acid amide] | > 10
CCC1CCc2nc3sc(C(N)=O)c(N)c3c(-c3cccs3)c2C1 (stereo not shown) [Compound 73, 3-Amino-6-ethyl-4-thiophen-2-yl-5,6,7,8-tetrahydro-thieno[2,3-b]quinoline-2-carboxylic acid amide] | > 10
CCOC(=O)CC1CCCc2c1nc1sc(C(N)=O)c(N)c1c2-c1cccs1 (stereo not shown) [Compound 71, 3-Amino-8-carbethoxymethyl-4-thiophen-2-yl-5,6,7,8-tetrahydro-thieno[2,3-b]quinoline-2-carboxylic acid amide] | > 10
NC(=O)c1sc2nc3c(c(-c4cccs4)c2c1N)CN(CC1CCCCC1)C3 [Compound 11, 3-Amino-6-cyclohexylmethyl-4-thiophen-2-yl-6,7-dihydro-5H-1-thia-6,8-diaza-s-indacene-2-carboxylic acid amide] | 1 to 10
NC(=O)c1sc2nc3c(c(-c4cccs4)c2c1N)CCC3CC(=O)N1CCN(c2ccccn2)CC1 (stereo not shown) [Compound 53, 3-Amino-7-[2-oxo-2-(4-pyridin-2-yl-piperazin-1-yl)-ethyl]-4-thiophen-2-yl-6,7-dihydro-5H-cyclopenta[b]thieno[3,2-e]pyridine-2-carboxylic acid amide] | > 10
NC(=O)c1sc2nc3c(c(-c4cccs4)c2c1N)CN(C(=O)Nc1ccc(N2CCOCC2)nc1)C3 [Compound 102, 3-Amino-4-thiophen-2-yl-5,7-dihydro-1-thia-6,8-diaza-s-indacene-2,6-dicarboxylicacid 2-amide 6-[(6-morpholin-4-yl-pyridin-3-yl)-amide]] | > 10
CCOC(=O)CC1CCc2c1nc1sc(C(N)=O)c(N)c1c2-c1cccs1 (stereo not shown) [Compound 41, 3-Amino-7-carbethoxymethyl-4-thiophen-2-yl-6,7-dihydro-5H-cyclopenta[b]thieno[3,2-e]pyridine-2-carboxylic acid amide] | > 10

SMILES | EC50 [µM]
NC(=O)c1sc2nc3c(c(-c4cccs4)c2c1N)CN(CCCN1CCN(c2ncccn2)CC1)C3 [Compound 25, 3-Amino-6-[3-(4-pyrimidin-2-yl-piperazin-1-yl)-propyl]-4-thiophen-2-yl-6,7-dihydro-5H-1-thia-6,8-diaza-s-indacene-2-carboxylicacid amide] | > 10
NC(=O)c1sc2nc3c(c(-c4cccs4)c2c1N)CN(C(=O)CCl)C3 [Compound 104, 3-Amino-6-(2-chloro-acetyl)-4-thiophen-2-yl-6,7-dihydro-5H-1-thia-6,8-diaza-s-indacene-2-carboxylic acid amide] | 1 to 10
NC(=O)c1sc2nc3c(c(-c4cccs4)c2c1N)CN(C(=S)NC1CC1)C3 [Compound 91, 3-Amino-6-cyclopropylthiocarbamoyl-4-thiophen-2-yl-6,7-dihydro-5H-1-thia-6,8-diaza-s-indacene-2-carboxylic acid amide] | 1 to 10
Cc1ccccc1CN1Cc2nc3sc(C(N)=O)c(N)c3c(-c3cccs3)c2C1 [Compound 22, 3-Amino-6-(2-methyl-benzyl)-4-thiophen-2-yl-6,7-dihydro-5H-1-thia-6,8-diaza-s-indacene-2-carboxylic acid amide] | 1 to 10
NC(=O)c1sc2nc3c(c(-c4cccs4)c2c1N)CN(CC1CCCCO1)C3 (stereo not shown) [Compound 4, 3-Amino-6-(tetrahydro-pyran-2-ylmethyl)-4-thiophen-2-yl-6,7-dihydro-5H-1-thia-6,8-diaza-s-indacene-2-carboxylic acid amide] | > 10
NC(=O)c1sc2nc3c(c(-c4cccs4)c2c1N)CN(CCO)C3 [Compound 15, 3-Amino-6-(2-hydroxy-ethyl)-4-thiophen-2-yl-6,7-dihydro-5H-1-thia-6,8-diaza-s-indacene-2-carboxylic acid amide] | 1 to 10
COC1CCCc2c1nc1sc(C(N)=O)c(N)c1c2-c1cccs1 (stereo not shown) [Compound 69, 3-Amino-8-methoxy-4-thiophen-2-yl-5,6,7,8-tetrahydro-thieno[2,3-b]quinoline-2-carboxylic acid amide] | < 1
CC(C)(C)OC(=O)N1CCc2nc3sc(C(N)=O)c(N)c3c(-c3cccs3)c2C1 [Compound 32, 3-Amino-6-tert-butyloxycarbonyl-4-thiophen-2-yl-5,6,7,8-tetrahydro-thieno[2,3-b][1,6]naphthyridine-2-carboxylic acidamide] | > 10
NC(=O)c1sc2nc3c(c(-c4cccs4)c2c1N)CCC3C1CCCC1 (stereo not shown) [Compound 61, 3-Amino-7-cyclopentyl-4-thiophen-2-yl-6,7-dihydro-5H-cyclopenta[b]thieno[3,2-e]pyridine-2-carboxylic acid amide] | 1 to 10
CC(C)(C)OC(=O)N1Cc2nc3sc(C(N)=O)c(N)c3c(-c3cccs3)c2C1 [Compound 1, 3-Amino-6-tert-butyloxycarbonyl-4-thiophen-2-yl-6,7-dihydro-5H-1-thia-6,8-diaza-s-indacene-2-carboxylic acid amide] | > 10
CCOC(=O)N1CCC(NC(=O)CC2CCc3c2nc2sc(C(N)=O)c(N)c2c3-c2cccs2)CC1 (stereo not shown) [Compound 54, 4-[2-(3-Amino-2-carbamoyl-4-thiophen-2-yl-6,7-dihydro-5H-cyclopenta[b]thiano[3,2-e]pyridin-7-yl)-acetylamino]-piperidine-1-carboxylic acid ethyl ester] | > 10
COC1CCCCN1CCCN1Cc2nc3sc(C(N)=O)c(N)c3c(-c3cccs3)c2C1 (stereo not shown) [Compound 26, 3-Amino-6-[3-(2-methoxy-piperidin-1-yl)-propyl]-4-thiophen-2-yl-6,7-dihydro-5H-1-thia-6,8-diaza-s-indacene-2-carboxylic acidamide] | > 10
NC(=O)c1sc2nc3c(c(-c4cccs4)c2c1N)CCC3CC(=O)NCCCN1CCOCC1 (stereo not shown) [Compound 57, 3-Amino-7-[(3-morpholin-4-yl-propylcarbamoyl)-methyl]-4-thiophen-2-yl-6,7-dihydro-5H-cyclopenta[b]thiano[3,2-e]pyridine-2-carboxylic acid amide] | > 10
CC(C)CCN1Cc2nc3sc(C(N)=O)c(N)c3c(-c3cccs3)c2C1 [Compound 6, 3-Amino-6-(3-methyl-butyl)-4-thiophen-2-yl-6,7-dihydro-5H-1-thia-6,8-diaza-s-indacene-2-carboxylic aicd amide] | > 10
NC(=O)c1sc2nc3c(c(-c4cccs4)c2c1N)CN(C(=S)Nc1ccsc1)C3 [Compound 100, 3-Amino-4-thiophen-2-yl-5,7-dihydro-1-thia-6,8-diaza-s-indacene-2,6-dicarboxylicacid 2-amide 5-thiophen-3-ylamide] | < 1

— patent publication US20090029983A1, “NOVEL HETEROCYCLIC COMPOUNDS HAVING ANTI-HBV ACTIVITY” (priority 2005, published 2009)
